The source of these data is patent publication US20140007865A1, “OLOPATADINE NASAL SPRAY REGIMEN FOR CHILDREN” (Alcon Research, Ltd., priority 2009, published 2014).

The series in a line: Acid-base equilibrium (pKa) of olopatadine. It counts as physicochemical. The source says:
Olopatadine has both a carboxylic functional group (pKa1=4.18) and a tertiary amino group (pKa2=9.79). It exists in different ionic forms depending upon the pH of the solution. Olopatadine exists predominantly as a zwitterion in the pH range between the two pKa values with a negatively-charged carboxylic group and a positively-charged tertiary amino group. The iso-electric point of the olopatadine zwitterion is at pH 6.99. At a pH lower than pKa1, cationic olopatadine (with ionized tertiary amino group) is dominant. At a pH higher than pKa2, anionic olopatadine (with ionized carboxylic group) is dominant.

Turning to `CN(C)CC/C=C1/c2ccccc2COc2ccc(CC(=O)O)cc21` [Olopatadine, Z-11-(3-dimethylaminopropylidene)-6,1′-dihydrodibenz[b,e]oxepine-2-acetic acid], the “iso-electric point of the olopatadine zwitterion” value is recorded as 6.99 pH, the “pKa1 (carboxylic functional group)” value is reported as 4.18 and the “pKa2 (tertiary amino group)” value was determined as 9.79.
